# From the NIST ThermoML archive (doi:10.1016/j.jct.2018.07.014)
# Numbers after ± are expanded uncertainties.
# Conditions: 298.2 K; 101.33 kPa; Liquid; buoyancy
row,mass density,SMILES
1,806.37 ± 2.8 kg/m3,CCCCC(C)=O [2-hexanone]
2,881.51 ± 2.9 kg/m3,CCCOC(C)=O [propyl ethanoate]

row,SMILES,mass density
1,"Cc1cc(C)cc(C)c1 [1,3,5-trimethylbenzene]",859.7 ± 2.9 kg/m3

# Same assay, conditions: 323.2 K; 101.33 kPa; Liquid; buoyancy
row,mass density,SMILES
1,1009.2 ± 3.1 kg/m3,Cc1cccc(O)c1 [3-methylphenol]
2,1011.3 ± 3.2 kg/m3,Cc1ccc(O)cc1 [4-methylphenol]

row,SMILES,mass density
1,Cc1ccccc1O [2-methylphenol],1018.8 ± 3.2 kg/m3
